Measurements taken from PubChem BioAssay (NCI).
Several values for one entry are separate records, joined by “and”; a condition that tells them apart may be missing. Equal entries are not always repeated.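 Where inhibition never reached the appropriate level, the endpoint shown equals the highest concentration tested. Otherwise, values were interpolated linearly from a five-concentration, 48-hour dose response in 96-well plates. Here, GI50 denotes the concentration required for 50% inhibition of growth. Definition used: TGI = concentration required for complete inhibition of growth.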

How the values were obtained:
Test in all cases: inhibition of tumour cell growth, NCI panel, 48 h
CCRF-CEM leukemia = system: CCRF-CEM leukemia
HCT-15 colon = system: HCT-15 colon
HOP-92 NSCLC = system: HOP-92 NSCLC
IGROV1 ovarian = system: IGROV1 ovarian
MALME-3M melanoma = system: MALME-3M melanoma
OVCAR-8 ovarian = system: OVCAR-8 ovarian
RXF 393 renal = system: RXF 393 renal
SF-539 CNS = system: SF-539 CNS
NCI-H522 lung = system: NCI-H522 lung
NCI/ADR-RES ovarian = system: NCI/ADR-RES ovarian

Compound | TGI (CCRF-CEM leukemia) | TGI (HCT-15 colon) | TGI (HOP-92 NSCLC) [µM] | TGI (IGROV1 ovarian) | TGI (MALME-3M melanoma) [µM] | TGI (OVCAR-8 ovarian) | TGI (RXF 393 renal) | TGI (SF-539 CNS) | TGI (NCI-H522 lung) [µM] | TGI (NCI/ADR-RES ovarian) [µM] | GI50 (NCI-H522 lung) [µM] | GI50 (CCRF-CEM leukemia) [µM] | GI50 (HCT-15 colon) [µM] | GI50 (IGROV1 ovarian) [µM] | GI50 (MALME-3M melanoma) [µM] | GI50 (NCI/ADR-RES ovarian) [µM] | GI50 (OVCAR-8 ovarian) [µM] | GI50 (RXF 393 renal) [µM] | GI50 (SF-539 CNS) [µM]
CCOC(=O)/C=C1\Nc2ccccc2-n2nnnc21 | > 100 µM | > 100 µM | > 100 | > 100 µM | > 100 | > 100 µM | > 100 µM | > 100 µM |  |  |  |  |  |  |  |  |  |  | 
COC(=O)C(=O)C(C(=O)C(=O)Nc1cc([N+](=O)[O-])ccc1[N+](=O)[O-])c1nc2ccc(C(=O)c3ccccc3)cc2[nH]c1=O (stereo not given) | 83.4 µM | > 100 µM |  | > 100 µM | > 100 | > 100 µM |  | > 100 µM | 70.6 |  |  |  |  |  |  |  |  |  | 
Cc1c(CCl)c(=O)oc2c(C)c3occ(CCl)c(=O)c3cc12 | 14.2 µM | 64.6 µM |  | 40.9 µM | > 100 | > 100 µM | 30.9 µM | 44.9 µM | 30.5 |  |  |  |  |  |  |  |  |  | 
CCC(=C(c1ccc(OCc2ccccc2)cc1)c1ccc(OCc2ccccc2)cc1)c1ccc(OC)cc1 | > 100 µM | > 100 µM | > 100 | > 100 µM | > 100 | > 100 µM | > 100 µM | > 100 µM | > 100 |  |  |  |  |  |  |  |  |  | 
COc1ccc2c(c1)[n+]([O-])c(-c1nc3ccccc3s1)c(N)[n+]2[O-] |  | > 100 µM | > 100 | > 100 µM | > 100 | > 100 µM |  | > 100 µM | > 100 |  |  |  |  |  |  |  |  |  | 
CCCCCCCCCCCC(=O)OCC1OC(n2cc(F)c(=O)[nH]c2=O)C(N)C(O)C1O (stereo not given) | > 100 µM | > 100 µM | > 100 | > 100 µM | > 100 | > 100 µM | > 100 µM | > 100 µM | > 100 |  |  |  |  |  |  |  |  |  | 
CNC1C(O)CC(OC2C/C=C(\C)C/C(C)=C/C=C/CCC(C)CNC(=O)/C=C/C=C/C2C)OC1C (stereo not given) | 0.758 µM | 0.531 µM | 2.11 | 2.58 µM | 3 | 1.18 µM | 2.43 µM | 3.14 µM | 2.81 |  |  |  |  |  |  |  |  |  | 
CCOC(=O)c1cc2ncccc2c2ccccc12 | > 100 µM | > 100 µM | > 100 | > 100 µM | > 100 | > 100 µM | > 100 µM |  | > 100 | > 100 |  |  |  |  |  |  |  |  | 
Nc1nc(N)c(-c2ccc(Cl)cc2)c(CCC(=O)Nc2cccc(C(F)(F)F)c2)n1 | > 100 µM | > 100 µM |  | > 100 µM | > 100 | > 100 µM | > 100 µM | > 100 µM | > 100 |  |  |  |  |  |  |  |  |  | 
CC1C(=O)N(C)C2(CO)C(=O)O[C@H](C)C12O (stereo not given in full) |  | > 100 µM |  | > 100 µM | > 100 | > 100 µM | > 100 µM | > 100 µM |  |  |  |  |  |  |  |  |  |  | 
CCOC(=O)C1=C(C)N(NC(=O)c2ccccc2)C2(O)CCCC12C(=O)OCC (stereo not given) |  | > 100 µM |  | > 100 µM | > 100 | > 100 µM | > 100 µM | > 100 µM | > 100 |  |  |  |  |  |  |  |  |  | 
CSC(=S)NNC(=O)c1ccncc1 | 43.1 µM | 28.3 µM | 60.8 | 32.7 µM | 35.3 | 40.6 µM | 31.8 µM | 48.9 µM | 31.4 |  |  |  |  |  |  |  |  |  | 
CCCCCCCCCC(=O)OCC1OC(n2cc(F)c(=O)[nH]c2=O)C(N)C(OC(=O)CCCCCCCCC)C1O (stereo not given) | 50.4 µM | 34.7 µM | 37 | > 100 µM | 35.2 | 34.6 µM | 31.9 µM | 33.7 µM | 30.1 |  |  |  |  |  |  |  |  |  | 
O=C(NCC#CCO)C(F)(F)F |  | > 100 µM |  | > 100 µM | > 100 | > 100 µM | > 100 µM | > 100 µM | > 100 |  |  |  |  |  |  |  |  |  | 
O=C(O)/C(Cl)=C(\Cl)C(=O)Nc1ccccc1 | > 100 µM | > 100 µM | > 100 | > 100 µM | > 100 |  | > 100 µM | > 100 µM |  |  |  |  |  |  |  |  |  |  | 
CC12CC3CC(C)(C1)CC(N=[N+]=[N-])(C3)C2 | > 100 µM |  | > 100 | > 100 µM | > 100 | > 100 µM |  | > 100 µM | > 100 |  |  |  |  |  |  |  |  |  | 
Nc1ccn([C@@H]2C=C(CO)[C@@H](O)[C@H]2O)c(=O)n1 | 294 µM and > 625 µM | 483 µM and > 625 µM |  | 222 µM and > 625 µM |  | 67 µM and > 625 µM | 201 µM and 44.8 µM | 266 µM and > 625 µM |  |  | 0.0242 |  |  |  |  |  |  |  | 
O=C(/C=C\Sc1nccc(C(F)(F)F)n1)c1ccc(Br)cc1 | 11.9 µM | 70.6 µM |  | 35.8 µM | 43.9 | > 100 µM | 40.9 µM | 69.4 µM | 33.2 | 52.7 | 15 | 3.68 | 20.7 | 16.8 | 16.9 | 20.2 | 45.9 | 18.5 | 23.3
Cc1ccc(S(=O)(=O)N/N=C(\C(=O)Nc2cccc([N+](=O)[O-])c2)c2nc3ccc([N+](=O)[O-])cc3[nH]c2=O)cc1 | > 100 µM | > 100 µM | > 100 | > 100 µM | > 100 | > 100 µM | > 100 µM | > 100 µM | > 100 |  |  |  |  |  |  |  |  |  | 
C/C(=C\c1c[nH]c2ccccc12)[N+](=O)[O-] | 4.2 µM | 13.7 µM |  | 19.2 µM | 7.85 | 17.9 µM | 11.5 µM | 15.2 µM | 11.6 | 19.7 | 3.19 | 1.62 | 2.48 | 5.43 | 2.54 | 6.23 | 4.18 | 2.91 | 3.7
Cc1cc(C)n(-c2c(O)ccc(O)c2-n2nc(C)cc2C)n1 | > 100 µM | > 100 µM | > 100 | > 100 µM | > 100 | > 100 µM | > 100 µM | > 100 µM | > 100 |  |  |  |  |  |  |  |  |  | 
CN=S(=O)(C[C@]1(O)CC2OC1C1OC(C)(C)OC21)c1ccccc1 (stereo not given in full) | > 100 µM | > 100 µM | > 100 | > 100 µM | > 100 | > 100 µM | > 100 µM | > 100 µM | > 100 |  |  |  |  |  |  |  |  |  | 
Cc1c(Cl)ccc2c1NC(=O)C2(O)C1Cc2ccccc2C1=O (stereo not given) | > 100 µM | > 100 µM | > 100 | > 100 µM | > 100 | > 100 µM | > 100 µM | > 100 µM | > 100 |  |  |  |  |  |  |  |  |  | 
